In patent publication US5519115A, “Reverse antimicrobial peptides” (priority 1993, dated 1996):

Key:
Format in all cases: cell-based
[1] = tested on: Helminthosporium carbonum; experiment: Antifungal bioassay (MCIC, spore germination); details: 10^6 spores/test; mean after 24 hours of treatment
Method: (§1) Fungi were grown on an appropriate medium, in this case a potato dextrose agar plate, for several weeks. At the end of that period, the plate was flooded with about 5 mL of sterile distilled water to harvest spores. The spore concentration was determined by use of a hemocytometer and the spore suspension was stored in a sterile tube at 4° C. until it was needed. Then 82 microliters of potato dextrose broth and 3 microliters of spore suspension (ranging from 10^5 to 10^7 spores total) were added to 12 wells in a 96 well microtiter plate for each AMPPP to be tested, with 1-4 replicate sets of 12 wells prepared for each AMPPP within a single experiment. In several instances, more than one spore concentration was used in order to determine the efficacy of certain AMPPPs as a function of the number of target spores. Stock solutions of each AMPPP were prepared at a concentration of 1 mg/mL and 0-15 microliters of each peptide stock solution were added to a single well in the microtiter plate followed by a sufficient volume of water to bring the total well volume to 100 microliters. […] Typical peptide volumes assayed were 0, 1, 2, 3, 4, 5, 6, 7, 8, 9, 10, and 15 microliters, which corresponds to a final peptide concentration in the range of 0-150 micrograms/mL. The microtiter plates were sealed with parafilm and incubated at room temperature for 48 hours. The fungal growth was observed after 24 and 48 hours by microscope using a 4× and/or a 10× objective lens. The amount of spore germination and fungal growth was recorded as a quantitative measurement at each observation time using a system of pluses and minuses: [-] meant no germination having occurred, [+] meant swollen spores with an extended germ tube, [++] meant the beginnings of mycelial growth with the overall appearance of a loose lattice, and [+++] meant a dense mycelial growth with the overall appearance of a thick opaque meshwork. The MCIC value for each AMPPP tested was then recorded, where the MCIC value is defined as the lowest peptide concentration at which no spore germination occurred (rating=[-]). […]

[2] = tested on: Cercospora sp.; experiment: Antifungal bioassay (MCIC, spore germination); details: 10^6 spores/test; mean after 24 hours of treatment
Method: as §1

[3] = tested on: Trichoderma reesei; experiment: Antifungal bioassay (MCIC, spore germination); details: 10^6 spores/test; mean after 24 hours of treatment
Method: as §1

[4] = tested on: Erwinia carotovora carotovora strain SR319 (Ecc SR319); experiment: Antibacterial bioassay (MCIC)
Method: Erwinia carotovora carotovora strain SR319 (Ecc SR319) (a gift of Dr. C. H. Liao, USDA-ARS, Philadelphia, Pa.) was streaked on a plate of Luria-Bertani ("LB") broth agar and grown overnight at 28° C. After 24 hours, a loopful of Ecc SR319 was picked from the agar plate and was added to 3 ml of LB broth (10 g Bacto-tryptone, 5 g Bacto-yeast extract, and 10 g sodium chloride per liter of solution; autoclaved sterile) in a capped sterile 10 ml test tube. This culture was grown overnight before its optical density at 630 nm was recorded using a Dynatech MR 600 microplate reader (Dynatech Laboratories, Inc., Alexandria, Va.). A portion of the overnight culture was adjusted with Luria broth to obtain a culture with an optical density at 630 nm of 0.2. About 250 microliters of this culture was added to 2250 microliters of Luria broth in a capped, sterile 10 ml test tube before this diluted culture was grown for 3-4 hours at 28° C. in a shaking incubator until the optical density of the freshly grown culture at 630 nm reached 0.2. […] The optical density of each Ecc SR319 culture well was recorded at 20 hours and then at 44 hours. A minimum complete inhibitory concentration (MCIC) was then determined for each replicate set of varying peptide concentrations at which no bacterial growth was observed. […]

Met-Mag 1 dimer (head-to-tail) [Peptide No. 9]
MCIC Values With: Helminthosporium carbonum [1]: 63+/-29 micrograms per mL
MCIC Values With: Cercospora sp. [2]: 25+/-10 micrograms per mL
MCIC Values With: Trichoderma reesei [3]: 24+/-12 micrograms per mL
MCIC Values (Ecc SR319) ([4]; mean after 20 hours of treatment, at least three replicate experiments): 33 +/- 5 micrograms per mL
activity against Ecc SR319 compared with parent monomers (in words) ([4]; tested at equivalent microgram per mL quantities, parent monomers Pep Nos. 1, 2, 4, and 12): better activity than at least one of the parent monomers
